According to ChEMBL document CHEMBL5604063, “ASAP - DENV-2 NS2B-NS3 protease fluorescence dose response” (2024):
Several values for one entry are separate records, joined by “and”; a condition that tells them apart may be missing. Equal values may be shown once.

Tests used:
Genome polyprotein [1] = target: T1, Genome polyprotein (dengue virus type 2, UniProt P29990); format: functional, Thailand/16681/1984
Genome polyprotein [2] = target: T1, Genome polyprotein; format: functional, Thailand/16681/1984; remark: listed apart in the source

T1 sequence (P29990 1346-1475 limits assumed): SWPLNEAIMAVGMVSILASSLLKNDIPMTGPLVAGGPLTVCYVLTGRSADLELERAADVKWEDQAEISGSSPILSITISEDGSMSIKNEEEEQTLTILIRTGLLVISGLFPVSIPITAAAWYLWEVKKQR
T1 sequence (P29990 1476-2093 limits assumed): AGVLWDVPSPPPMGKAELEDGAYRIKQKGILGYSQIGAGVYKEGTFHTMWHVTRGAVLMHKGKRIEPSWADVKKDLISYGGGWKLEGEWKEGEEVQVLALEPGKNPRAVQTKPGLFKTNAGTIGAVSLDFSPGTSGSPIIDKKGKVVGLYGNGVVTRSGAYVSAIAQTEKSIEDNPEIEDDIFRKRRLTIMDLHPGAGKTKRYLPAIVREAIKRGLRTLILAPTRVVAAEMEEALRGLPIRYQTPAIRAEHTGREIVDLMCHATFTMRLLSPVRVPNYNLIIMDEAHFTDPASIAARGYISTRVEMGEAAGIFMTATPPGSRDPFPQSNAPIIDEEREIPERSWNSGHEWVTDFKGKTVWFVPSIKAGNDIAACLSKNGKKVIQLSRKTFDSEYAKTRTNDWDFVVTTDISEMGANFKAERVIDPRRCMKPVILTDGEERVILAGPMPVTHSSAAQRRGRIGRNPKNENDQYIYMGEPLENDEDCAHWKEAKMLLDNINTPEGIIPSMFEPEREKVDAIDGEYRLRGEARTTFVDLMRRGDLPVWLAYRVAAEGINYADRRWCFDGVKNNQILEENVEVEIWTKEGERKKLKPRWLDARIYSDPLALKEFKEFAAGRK

Structure (SMILES) | IC50 (Genome polyprotein [1]) | IC50 (Genome polyprotein [2])
NCc1cccc(NC(=O)C[C@H](NC(=O)OCc2ccccc2)c2ccc(OCc3ccccc3)c(Br)c2)c1 | 8.8 µM and 6.74 µM and 4.06 µM and 4.11 µM and 9.99 µM and 4.61 µM and 3.66 µM | < 2.49 µM and 1.85 µM and 1.92 µM and 1.84 µM and 2.53 µM and 2.67 µM and 2.65 µM
N#Cc1cccc(-c2nc3c(C(=O)Nc4ccccn4)cc(Cl)cc3[nH]2)c1 | > 100 µM | 28.9 µM
O=C(CSc1cccc(Br)c1)Nc1ccc2c(c1)CNC2 | > 100 µM | > 99.5 µM
Cc1cc(C)c([C@@H](CC(=O)Nc2cccc(CN)c2)NC(=O)OCc2ccccc2)cc1C | 11.6 µM | 7.12 µM and 7.23 µM
Cc1cc(C(=O)Nc2ccc3c(c2)CNC3)c2cnn(C)c2n1 | > 100 µM | > 99.5 µM
NCc1cccc(NC(=O)[C@H](NC(=O)OCc2ccccc2)c2ccc(OCc3ccncn3)cc2)c1 | > 100 µM | 99.2 µM
NC(=O)c1cccc(NC(=O)c2cc(Cl)cc(NC(=O)OCc3ccccc3)c2)c1 | > 100 µM | > 99.5 µM
Cc1c(C(=O)Nc2n[nH]c3c2CNC3)cc(C2CC2)n1C | > 100 µM | > 99.5 µM
Cc1c(C(=O)Nc2cc(C#N)c3ccccc3n2)cc(C2CC2)n1C | > 100 µM | > 99.5 µM
CCc1cccc(NC(=O)[C@]2(Oc3ccc(Br)cc3)CCNC3(CC3)C2)c1 | > 100 µM | > 99.5 µM
O=C(Nc1ccc2c(c1)CNC2)N1CCC[C@H](CC2CCC2)C1 | > 100 µM | > 99.5 µM
Cc1cc(C(=O)Nc2cccc(CN)c2)c2c(C)n[nH]c2n1 | > 100 µM | > 99.5 µM
CS(=O)(=O)Nc1c(Cl)cc(Cl)cc1C(=O)Nc1cccc(CN)c1 | > 100 µM | > 99.5 µM
Cc1c(C(=O)Nc2cc(C(=O)N3CC[C@H](CO)C3)ccn2)cc(C2CC2)n1C | > 100 µM | > 99.5 µM
O=C(Nc1ccc2c(c1)CNCCC2)c1cc(Cl)cc2[nH]ncc12 | 62.4 µM and 45.8 µM | 42.5 µM
O=C1COc2c(cccc2N2CCN(Cc3c[nH]c4ccccc34)CC2)N1 | > 100 µM | > 99.5 µM
COc1nn(C)cc1-c1nc2c(C(=O)Nc3ccc4c(c3)CNC4)cc(Cl)cc2[nH]1 | > 100 µM | > 99.5 µM
O=C(Nc1cc(Cl)cc(C(=O)N2CCC(c3nn[nH]n3)CC2)c1)OCc1ccccc1 | > 100 µM | > 99.5 µM
CCCCSc1ccc(Cl)cc1C(=O)Nc1cccc(CN)c1 | > 100 µM | > 99.5 µM
CNC(=O)[C@H](Nc1cc(CN)cc(C(=O)O)c1)c1cc(Cl)cc(C2CC2)c1 | > 100 µM | > 99.5 µM
Cc1cc(C(=O)Nc2cccc(CN)c2)cc(O)n1 | > 100 µM | > 99.5 µM

Structure (SMILES) | IC50 (Genome polyprotein [1]) | IC50 (Genome polyprotein [2])
NCc1cccc(NC(=O)c2cc(C3CC3)nc3ccc(Cl)cc23)c1 | > 100 µM | > 99.5 µM
Cn1nc(C(=O)Nc2ccc3c(c2)CNC3)c2cc(Br)ccc21 | > 100 µM | 89.7 µM
N#CCOc1ccc(Br)cc1[C@H](Nc1ccc2c(c1)CNC2)C(=O)NCC(F)F | > 100 µM | > 99.5 µM
O=C(Nc1nc(O)c2c(n1)CNC2)c1cc(Cl)cc2[nH]ncc12 | > 100 µM | > 99.5 µM
CN(C)C(=O)C[C@H]1NCc2cc(NC(=O)c3cc(Cl)cc4[nH]ncc34)ccc21 | > 100 µM | > 99.5 µM
O=C(Nc1cc(Cl)cc(C(=O)Nc2ccc(-n3nn[nH]c3=O)cc2)c1)OCc1ccccc1 | 7.45 µM and 7.74 µM | 13.3 µM and 14.1 µM
O=C(Nc1cc(-c2cccnc2)ccn1)c1c[nH]c2ncccc12 | > 100 µM | > 99.5 µM
COc1ccc2[nH]cnc2c1S(=O)(=O)Nc1ccc2c(c1)CNC2 | > 100 µM | > 99.5 µM
Fc1cc(CNc2ccc3c(c2)CNC3)c2cc[nH]c2c1 | > 100 µM | > 99.5 µM
CC(C)[C@H](NC(=O)c1cc(Cl)cc(NC(=O)OCc2ccccc2)c1)c1nn[nH]n1 | 61.3 µM and 41.1 µM and 39.5 µM and 56.3 µM and 58.4 µM | > 99.5 µM
O=C(Nc1cc(-c2cccnc2)ccn1)c1cc(C2CC2)[nH]n1 | > 100 µM | > 99.5 µM
Cc1nc(C2CC2)sc1C(=O)Nc1cc(CCCN)ccn1 | > 100 µM | > 99.5 µM
NCc1cccc(NC(=O)[C@H](NC(=O)OCc2ccccc2)c2ccc(OCC3CCC3)cc2)c1 | > 100 µM | 48.8 µM
O=C(Nc1ccc2c(c1)CNC2)c1cc(Cl)cc2[nH]c(CCc3cccnc3)nc12 | > 100 µM | 44.7 µM
NC[C@H]1OCCc2sc(C(=O)Nc3cc(-c4cccnc4)ccn3)cc21 | > 100 µM | > 99.5 µM
Cn1c(=O)[nH]c2cc(C(=O)Nc3ccc4c(c3)CNC4)cc(Br)c21 | 60 µM and 52.9 µM | > 99.5 µM
NCc1cc(C(=O)N[C@H]2CCCOC2)cc([C@@H]2C[C@H]2c2cc(Cl)cc(NC(=O)OCc3ccccc3)c2)c1 | > 100 µM | > 99.5 µM
C=CC[C@H](Nc1cc(CN)ccn1)c1cc(Cl)cc(NC(=O)OCc2ccccc2)c1 | > 100 µM | > 99.5 µM
O=C(Nc1ccc2c(c1)CNC2)c1n[nH]c2ccc(F)cc12 | 78.7 µM | > 99.5 µM
CC(C)N1C(=O)C[C@H](C(=O)Nc2cccc(CN)c2)[C@H]1c1ccc(Cl)c(F)c1 | > 100 µM | > 99.5 µM
O=C1Cc2c(cccc2C(=O)NC[C@H]2C[C@@H](n3cccn3)C2)N1 | > 100 µM | > 99.5 µM

Structure (SMILES) | IC50 (Genome polyprotein [1]) | IC50 (Genome polyprotein [2])
Cn1ccc(COc2ccc([C@@H](NC(=O)OCc3ccccc3)C(=O)Nc3cccc(CN)c3)cc2)n1 | > 100 µM | > 99.5 µM
CCCN1C(=O)[C@](Nc2ccc3c(c2)CNC3)(C(=O)NC)c2cc(Cl)ccc21 | > 100 µM | > 99.5 µM
N#CCCNC(=O)[C@H](Nc1ccc2c(c1)CNC2)c1cc(Cl)cc(C2CC2)c1 | > 100 µM | > 99.5 µM
O=C(Nc1ccc2c(c1)CNC2)c1cc(Cl)cc2[nH]c(-c3ncnn3C3CC3)nc12 | > 100 µM | > 99.5 µM
CC(C)(C)OC(=O)NCc1cccc(NC(=O)C[C@H](N)c2ccc(OCc3ccccc3)c(Br)c2)c1 | > 100 µM | > 99.5 µM
NCc1nc(CNC(=O)c2cc(Cl)cc(NC(=O)OCc3ccccc3)c2)cs1 | > 100 µM | > 99.5 µM
Cc1nc2ccc(C(=O)Nc3ccc4c(c3)CNC4)cc2s1 | > 100 µM | > 99.5 µM
CC(C)c1nccn1C[C@H]1CCCN1C(=O)Nc1ccc2c(c1)CNC2 | > 100 µM | > 99.5 µM
O=C(Nc1cc(-c2cccnc2)ccn1)c1cc(C2CC2)on1 | > 100 µM | > 99.5 µM
NCc1cc(Cl)cc(C(=O)Nc2ccc3c(c2)CNC3)c1 | > 100 µM | > 99.5 µM
NC1CN(c2ccc(NS(=O)(=O)c3ccc(Oc4ccccc4Cl)cc3)cn2)C1 | > 100 µM | > 99.5 µM
O=C(Nc1ccc2c(c1)CNC2)N1CCC[C@H]1Cc1cc2ccccc2o1 | > 100 µM | > 99.5 µM
O=C(Nc1ccc2c(c1)CNC2)N1CCC2(C1)CC(F)(F)C2 | > 100 µM | > 99.5 µM
COc1cc(-c2cc(Cl)cc(NC(=O)OCc3ccccc3)c2)c(OC)cc1CC(=O)O | 18.4 µM and 18.3 µM | 32.8 µM
O=C(Nc1cccc([C@@H]2C[C@H]2C(=O)O)c1)c1cc(Cl)cc2[nH]ncc12 | > 100 µM | > 99.5 µM
N#Cc1ccc2[nH]cc(Cc3ccc(-c4nnn[nH]4)cc3)c2c1 | 83.8 µM | > 99.5 µM
NCc1cc(C(=O)O)cc([C@@H]2C[C@H]2c2cc(Cl)cc(NC(=O)OCc3ccccc3)c2)c1 | > 100 µM | > 99.5 µM
NCCc1cccc(NC(=O)c2cc(Cl)cc3[nH]ncc23)c1 | > 100 µM | > 99.5 µM
NCc1cc(Br)cc(NC(=O)c2cc(Cl)cc(NC(=O)OCc3ccccc3)c2)c1 | > 100 µM | > 99.5 µM
O=C1Cc2c(cccc2C(=O)Nc2ccc3[nH]nnc3c2)N1 | > 100 µM | > 99.5 µM
O=C(Nc1ccc2c(c1)CNC2)c1c[nH]c2ncc(F)cc12 | > 100 µM | > 99.5 µM

Structure (SMILES) | IC50 (Genome polyprotein [1]) | IC50 (Genome polyprotein [2])
O=C(Nc1ccc2c(c1)CNC2)c1cc(C(F)(F)F)c2cn[nH]c2n1 | > 100 µM | > 99.5 µM
Cn1nc(C(=O)Nc2cc(CCCN)ccn2)cc1C1CC1 | > 100 µM | > 99.5 µM
Cc1cc(C(=O)Nc2cccc(CN)c2)c2nc(C)n(C)c2n1 | > 100 µM | > 99.5 µM
O=C(Nc1ccc2c(c1)CNC2)c1cc(Cl)cc2ccccc12 | > 100 µM | > 99.5 µM
O=C(Nc1ccc2c(c1)CNC2)c1cc(Cl)cc2[nH]c(-c3ccc(F)cc3O)nc12 | 60.1 µM | 23.8 µM
CCNC(=O)c1ccc2nc(N3CC[C@H](CO)C3)c(=O)n(CC)c2c1 | > 100 µM | 90.4 µM
O=C(NCC(F)F)[C@H](Nc1ccc2c(c1)CNC2)c1cc(F)cc2[nH]ccc12 | > 100 µM | > 99.5 µM
Cc1c(C(=O)Nc2cc(C3(C)OCCO3)ccn2)cc(C2CC2)n1C | > 100 µM | > 99.5 µM
Cc1ncc(-c2cc(F)cc(C(=O)Nc3ccc4c(c3)CNC4)c2)o1 | > 100 µM | > 99.5 µM
COc1c(C(=O)N(C)C)cc(Cl)cc1S(=O)(=O)Nc1cccc(-c2nnn[nH]2)c1 | > 100 µM | > 99.5 µM
O=C(Nc1cc(Cl)cc(C(=O)N2CCC(C(=O)O)CC2)c1)OCc1ccccc1 | > 100 µM | > 99.5 µM
Cc1cc(CN)cc(C)c1NS(=O)(=O)c1ccc(Oc2ccccc2Cl)cc1 | > 100 µM | > 99.5 µM
O=C(Nc1ccc2c(c1)CNC2)c1ccc2c(C3=CCNCC3)csc2c1 | > 100 µM | 52.6 µM and 43.4 µM
Cc1nccn1CCOc1cccc([C@H](NC(=O)OCc2ccccc2)C(=O)Nc2cccc(CN)c2)c1 | > 100 µM | > 99.5 µM
NCCOc1ccnc(NS(=O)(=O)c2ccc(Oc3ccccc3Cl)cc2)c1 | > 100 µM | > 99.5 µM
O=C(Nc1cc(Cl)cc(-c2ccc3nc(C(=O)O)ncc3c2)c1)OCc1ccccc1 | 11.6 µM and 12.4 µM | 11.4 µM
COCC=Cc1cccc([C@@H](NC(=O)OCc2ccccc2)C(=O)Nc2cccc(CN)c2)c1 | > 100 µM | 56.9 µM
O=C(O)c1nc(Cc2c[nH]c3ccc(Cl)cc23)c2ccccn12 | > 100 µM | > 99.5 µM
O=C(Nc1ccc2c(c1)CNC2)c1cc(F)cc2[nH]cnc12 | > 100 µM | 99 µM
NCc1cccc(NC(=O)[C@@H]2C[C@@H](O)CN2C(=O)C23CC4CC(CC(C4)C2)C3)c1 | > 100 µM | > 99.5 µM
